Experimental data: PubChem BioAssay AID1963978 (Molecular Pharmacology Branch, DTP, NCI, 2024)

Tested on: 616215-338-R-J1-PDC spheroids with HUVEC/MSC, viability
Experiment: Anticancer human tumor 616215-338-R-J1-PDC patient-derived colon adenocarcinoma cell line growth inhibition [PI3K]
Details: for viability, T/C: stronger effect = lower value
Procedure, shortened: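 High-throughput combination screen: PI3K inhibitors crossed with targeted small molecules on complex spheroids of tumor cells, HUVEC and MSCs at 37 degrees C, 5% CO2. Top concentration was at or near clinical Cmax (otherwise 10 microM), with half-log decrements.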

[1] = curve of first compound, second compound 0.0316 µM
[2] = curve of first compound, second compound 0.1 µM
[3] = curve of first compound, second compound 0.316 µM
[4] = curve of first compound, second compound 1 µM
[5] = second compound 0.0316 µM, first compound 0.00316 µM
[6] = second compound 0.0316 µM, first compound 0.01 µM
[7] = second compound 0.0316 µM, first compound 0.0316 µM
[8] = second compound 0.0316 µM, first compound 0.1 µM
[9] = second compound 0.0316 µM, first compound 0.316 µM
[10] = second compound 0.0316 µM, first compound 1 µM
[11] = second compound 0.1 µM, first compound 0.00316 µM
[12] = second compound 0.1 µM, first compound 0.01 µM
[13] = second compound 0.1 µM, first compound 0.0316 µM
[14] = second compound 0.1 µM, first compound 0.1 µM
[15] = second compound 0.1 µM, first compound 0.316 µM
[16] = second compound 0.1 µM, first compound 1 µM
[17] = second compound 0.316 µM, first compound 0.00316 µM
[18] = second compound 0.316 µM, first compound 0.01 µM
[19] = second compound 0.316 µM, first compound 0.0316 µM
[20] = second compound 0.316 µM, first compound 0.1 µM
[21] = second compound 0.316 µM, first compound 0.316 µM
[22] = second compound 0.316 µM, first compound 1 µM
[23] = second compound 1 µM, first compound 0.00316 µM
[24] = second compound 1 µM, first compound 0.01 µM
[25] = second compound 1 µM, first compound 0.0316 µM
[26] = second compound 1 µM, first compound 0.1 µM
[27] = second compound 1 µM, first compound 0.316 µM
[28] = second compound 1 µM, first compound 1 µM
[29] = curve of first compound, second compound 0.00316 µM
[30] = curve of first compound, second compound 0.01 µM
[31] = second compound 0.00316 µM, first compound 0.000316 µM
[32] = second compound 0.00316 µM, first compound 0.001 µM
[33] = second compound 0.00316 µM, first compound 0.00316 µM
[34] = second compound 0.00316 µM, first compound 0.01 µM
[35] = second compound 0.00316 µM, first compound 0.0316 µM
[36] = second compound 0.00316 µM, first compound 0.1 µM
[37] = second compound 0.01 µM, first compound 0.000316 µM
[38] = second compound 0.01 µM, first compound 0.001 µM
[39] = second compound 0.01 µM, first compound 0.00316 µM
[40] = second compound 0.01 µM, first compound 0.01 µM
[41] = second compound 0.01 µM, first compound 0.0316 µM
[42] = second compound 0.01 µM, first compound 0.1 µM
[43] = second compound 0.0316 µM, first compound 0.000316 µM
[44] = second compound 0.0316 µM, first compound 0.001 µM
[45] = second compound 0.1 µM, first compound 0.000316 µM
[46] = second compound 0.1 µM, first compound 0.001 µM
[47] = second compound 0.316 µM, first compound 0.000316 µM
[48] = second compound 0.316 µM, first compound 0.001 µM
[49] = second compound 1 µM, first compound 0.000316 µM
[50] = second compound 1 µM, first compound 0.001 µM
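Note: spheroids exposed to agents for seven days before the viability read.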

Compound: CCN1CCN(Cc2ccc(Nc3ncc(F)c(-c4cc(F)c5nc(C)n(C(C)C)c5c4)n3)nc2)CC1 + CC(Nc1ncnc2nc[nH]c12)c1cc2cccc(Cl)c2c(=O)n1-c1ccccc1
- IC50 [1]: > 1 µM
- IC50 [2]: > 1 µM
- IC50 [3]: > 1 µM
- IC50 [4]: > 1 µM
- IC50 (curve of first compound, second compound 3.16 µM): > 1 µM
- IC50 (curve of first compound, second compound 10 µM): > 1 µM
- viability, T/C [5]: 92%
- viability, T/C [6]: 90.9%
- viability, T/C [7]: 100%
- viability, T/C [8]: 98.6%
- viability, T/C [9]: 150%
- viability, T/C [10]: 109%
- viability, T/C [11]: 91.5%
- viability, T/C [12]: 88.2%
- viability, T/C [13]: 104%
- viability, T/C [14]: 106%
- viability, T/C [15]: 137%
- viability, T/C [16]: 149%
- viability, T/C [17]: 95.2%
- viability, T/C [18]: 93.9%
- viability, T/C [19]: 98.2%
- viability, T/C [20]: 100%
- viability, T/C [21]: 147%
- viability, T/C [22]: 106%
- viability, T/C [23]: 98.5%
- viability, T/C [24]: 90.5%
- viability, T/C [25]: 105%
- viability, T/C [26]: 108%
- viability, T/C [27]: 148%
- viability, T/C [28]: 79.7%
- viability, T/C (second compound 3.16 µM, first compound 0.00316 µM): 106%
- viability, T/C (second compound 3.16 µM, first compound 0.01 µM): 93.9%
- viability, T/C (second compound 3.16 µM, first compound 0.0316 µM): 123%
- viability, T/C (second compound 3.16 µM, first compound 0.1 µM): 124%
- viability, T/C (second compound 3.16 µM, first compound 0.316 µM): 144%
- viability, T/C (second compound 3.16 µM, first compound 1 µM): 86.8%
- viability, T/C (second compound 10 µM, first compound 0.00316 µM): 111%
- viability, T/C (second compound 10 µM, first compound 0.01 µM): 107%
- viability, T/C (second compound 10 µM, first compound 0.0316 µM): 118%
- viability, T/C (second compound 10 µM, first compound 0.1 µM): 120%
- viability, T/C (second compound 10 µM, first compound 0.316 µM): 114%
- viability, T/C (second compound 10 µM, first compound 1 µM): 57.9%

Compound: C#Cc1c(F)ccc2cc(O)cc(-c3ncc4c(N5CC6CCC(C5)N6)nc(OCC56CCCN5CC(F)C6)nc4c3F)c12 (stereo not given)
- viability, T/C (compound 0.0316 µM): 97.3% [middle of 4 runs]
- viability, T/C (compound 0.1 µM): 96.7% [middle of 4 runs]
- viability, T/C (compound 0.316 µM): 105% [middle of 4 runs]
- viability, T/C (compound 1 µM): 96.1% [middle of 4 runs]
- viability, T/C (compound 3.16 µM): 95% [middle of 4 runs]
- viability, T/C (compound 10 µM): 83% [middle of 4 runs]
- IC50 (curve of compound): > 10 µM

Compound: Cn1ncnc1[C@H]1c2n[nH]c(=O)c3cc(F)cc(c23)N[C@@H]1c1ccc(F)cc1 + COc1c(OCCCN2CCOCC2)ccc2c3n(c(=NC(=O)c4cnc(N)nc4)nc12)CCN3
- IC50 [29]: > 0.1 µM
- IC50 [30]: > 0.1 µM
- IC50 [1]: > 0.1 µM
- IC50 [2]: > 0.1 µM
- IC50 [3]: < 0.000316 µM
- IC50 [4]: < 0.000316 µM
- viability, T/C [31]: 99.2%
- viability, T/C [32]: 101%
- viability, T/C [33]: 107%
- viability, T/C [34]: 95.2%
- viability, T/C [35]: 92.5%
- viability, T/C [36]: 94.1%
- viability, T/C [37]: 93.8%
- viability, T/C [38]: 95.7%
- viability, T/C [39]: 97.9%
- viability, T/C [40]: 97.7%
- viability, T/C [41]: 96.9%
- viability, T/C [42]: 102%
- viability, T/C [43]: 96.9%
- viability, T/C [44]: 99.3%
- viability, T/C [5]: 113%
- viability, T/C [6]: 98%
- viability, T/C [7]: 97%
- viability, T/C [8]: 95.7%
- viability, T/C [45]: 111%
- viability, T/C [46]: 93.6%
- viability, T/C [11]: 88.5%
- viability, T/C [12]: 81%
- viability, T/C [13]: 89.4%
- viability, T/C [14]: 63.7%
- viability, T/C [47]: 45.1%
- viability, T/C [48]: 41%
- viability, T/C [17]: 31.9%
- viability, T/C [18]: 36.2%
- viability, T/C [19]: 37%
- viability, T/C [20]: 29.8%
- viability, T/C [49]: 29.8%
- viability, T/C [50]: 24.9%
- viability, T/C [23]: 23.1%
- viability, T/C [24]: 19.5%
- viability, T/C [25]: 19.4%
- viability, T/C [26]: 22.3%

Compound: CC(Cn1ccc(-c2ccc(C#N)c(Cl)c2)n1)NC(=O)c1cc(C(C)O)[nH]n1 (stereo not given) + CC(Nc1ccc2c(c1)OCCn1cc(N3C(=O)OCC3C(F)F)nc1-2)C(N)=O
- IC50 [29]: > 10 µM
- IC50 [30]: > 10 µM
- IC50 [1]: > 10 µM
- IC50 [2]: > 10 µM
- IC50 [3]: > 10 µM
- IC50 [4]: > 10 µM
- viability, T/C [35]: 90.8%
- viability, T/C [36]: 94%
- viability, T/C (second compound 0.00316 µM, first compound 0.316 µM): 91.2%
- viability, T/C (second compound 0.00316 µM, first compound 1 µM): 93.6%
- viability, T/C (second compound 0.00316 µM, first compound 3.16 µM): 92.4%
- viability, T/C (second compound 0.00316 µM, first compound 10 µM): 94.3%
- viability, T/C [41]: 89.3%
- viability, T/C [42]: 105%
- viability, T/C (second compound 0.01 µM, first compound 0.316 µM): 102%
- viability, T/C (second compound 0.01 µM, first compound 1 µM): 92.4%
- viability, T/C (second compound 0.01 µM, first compound 3.16 µM): 92.3%
- viability, T/C (second compound 0.01 µM, first compound 10 µM): 104%
- viability, T/C [7]: 94.4%
- viability, T/C [8]: 105%
- viability, T/C [9]: 90.1%
- viability, T/C [10]: 101%
- viability, T/C (second compound 0.0316 µM, first compound 3.16 µM): 96.3%
- viability, T/C (second compound 0.0316 µM, first compound 10 µM): 101%
- viability, T/C [13]: 107%
- viability, T/C [14]: 88%
- viability, T/C [15]: 96.8%
- viability, T/C [16]: 102%
- viability, T/C (second compound 0.1 µM, first compound 3.16 µM): 105%
- viability, T/C (second compound 0.1 µM, first compound 10 µM): 94.4%
- viability, T/C [19]: 109%
- viability, T/C [20]: 104%
- viability, T/C [21]: 107%
- viability, T/C [22]: 101%
- viability, T/C (second compound 0.316 µM, first compound 3.16 µM): 101%
- viability, T/C (second compound 0.316 µM, first compound 10 µM): 110%
- viability, T/C [25]: 101%
- viability, T/C [26]: 99.8%
- viability, T/C [27]: 104%
- viability, T/C [28]: 103%
- viability, T/C (second compound 1 µM, first compound 3.16 µM): 99.4%
- viability, T/C (second compound 1 µM, first compound 10 µM): 97.8%

Compound: CC(C)n1nc(-c2ccc3oc(N)nc3c2)c2c(N)ncnc21 + CC(Nc1ccc2c(c1)OCCn1cc(N3C(=O)OCC3C(F)F)nc1-2)C(N)=O
- IC50 [29]: > 0.1 µM
- IC50 [30]: > 0.1 µM
- IC50 [1]: > 0.1 µM
- IC50 [2]: > 0.1 µM
- IC50 [3]: > 0.1 µM
- IC50 [4]: 0.0932 µM
- viability, T/C [31]: 92.2%
- viability, T/C [32]: 90.5%
- viability, T/C [33]: 87.2%
- viability, T/C [34]: 114%
- viability, T/C [35]: 99.2%
- viability, T/C [36]: 91.5%
- viability, T/C [37]: 93%
- viability, T/C [38]: 102%
- viability, T/C [39]: 111%
- viability, T/C [40]: 112%
- viability, T/C [41]: 113%
- viability, T/C [42]: 102%
- viability, T/C [43]: 100%
- viability, T/C [44]: 95.3%
- viability, T/C [5]: 103%
- viability, T/C [6]: 118%
- viability, T/C [7]: 108%
- viability, T/C [8]: 82.1%
- viability, T/C [45]: 110%
- viability, T/C [46]: 95.3%
- viability, T/C [11]: 100%
- viability, T/C [12]: 110%
- viability, T/C [13]: 117%
- viability, T/C [14]: 81.5%
- viability, T/C [47]: 96.6%
- viability, T/C [48]: 95.8%
- viability, T/C [17]: 98.8%
- viability, T/C [18]: 110%
- viability, T/C [19]: 94.6%
- viability, T/C [20]: 76.2%
- viability, T/C [49]: 102%
- viability, T/C [50]: 118%
- viability, T/C [23]: 106%
- viability, T/C [24]: 96.7%
- viability, T/C [25]: 86.6%
- viability, T/C [26]: 47.4%
